Data reported in patent US20100210518A1, “Peg-lipid conjugates for increasing the solubility of drug compounds” (priority 2009, published 2010).

Settings: mouse, in vivo, 25 mg/kg, pH 6
Method: Experiments were performed to determine blood levels of Gefitinib formulations after both intravenous and oral dosing. […] Groups of three male mice (B6D2F1) were used for the studies. HPLC-MS analyses were performed on heparinized mouse plasma samples obtained typically at 0 hr, 0.08 hr, 0.5 hr, 1 hr, 2 hr, 4 hr, 7 hr, 16 hr and 24 hr after bolus IV injection. After oral feeding, the analyses were performed at 0 hr, 0.5 hr, 1 hr, 2 hr, 4 hr, 8 hr, 16 hr and 24 hr. To determine the level of each drug, the drug was first isolated from plasma with a sample pre-treatment. Acetonitrile were used to remove proteins in samples. An isocratic HPLC-MS/MS method was then used to separate the drugs from any potential interference. Drug levels were measured by MS detection with a multiple reaction monitoring (MRM) mode. PK data was analyzed using the WinNonlin program (ver. 5.2, Pharsight) compartmental models of analysis.
The drug was administered orally and the dosing strength was 25 mg/kg. The drug was also administered intravenously and the dosing strength was 25 mg/kg in 15% Cremophor EL® and in 10 mM sodium phosphate buffer (pH 6.0). The AUC (31.3) obtained from the IV administration was used for calculating the relative bioavailability (BA).

- relative bioavailability (BA): 56.0%
Substance: 3,4-Di(oleoyloxy)-decaethylene glycol-benzoate [DDGB]
